Data on 21 molecules can be found in patent US20200392158A1, “INHIBITORS OF LEUCINE RICH REPEAT KINASE 2” (GLAXOSMITHKLINE INTELLECTUAL PROPERTY DEVELOPMENT LIMITED, priority 2017, published 2020).

The structures appear in SMILES notation. pIC50: −log10 of the molar value.

The target of the assay is T1, full length G2019 human LRRK2 (Homo sapiens, UniProt Q5S007, R50H).
T1 construct: made in house; host or cells: HEK293 6E cells transduced with BacMam virus (virus generated in Sf9 cells)
T1 sequence (Q5S007 with tags, fused parts or gaps R50H): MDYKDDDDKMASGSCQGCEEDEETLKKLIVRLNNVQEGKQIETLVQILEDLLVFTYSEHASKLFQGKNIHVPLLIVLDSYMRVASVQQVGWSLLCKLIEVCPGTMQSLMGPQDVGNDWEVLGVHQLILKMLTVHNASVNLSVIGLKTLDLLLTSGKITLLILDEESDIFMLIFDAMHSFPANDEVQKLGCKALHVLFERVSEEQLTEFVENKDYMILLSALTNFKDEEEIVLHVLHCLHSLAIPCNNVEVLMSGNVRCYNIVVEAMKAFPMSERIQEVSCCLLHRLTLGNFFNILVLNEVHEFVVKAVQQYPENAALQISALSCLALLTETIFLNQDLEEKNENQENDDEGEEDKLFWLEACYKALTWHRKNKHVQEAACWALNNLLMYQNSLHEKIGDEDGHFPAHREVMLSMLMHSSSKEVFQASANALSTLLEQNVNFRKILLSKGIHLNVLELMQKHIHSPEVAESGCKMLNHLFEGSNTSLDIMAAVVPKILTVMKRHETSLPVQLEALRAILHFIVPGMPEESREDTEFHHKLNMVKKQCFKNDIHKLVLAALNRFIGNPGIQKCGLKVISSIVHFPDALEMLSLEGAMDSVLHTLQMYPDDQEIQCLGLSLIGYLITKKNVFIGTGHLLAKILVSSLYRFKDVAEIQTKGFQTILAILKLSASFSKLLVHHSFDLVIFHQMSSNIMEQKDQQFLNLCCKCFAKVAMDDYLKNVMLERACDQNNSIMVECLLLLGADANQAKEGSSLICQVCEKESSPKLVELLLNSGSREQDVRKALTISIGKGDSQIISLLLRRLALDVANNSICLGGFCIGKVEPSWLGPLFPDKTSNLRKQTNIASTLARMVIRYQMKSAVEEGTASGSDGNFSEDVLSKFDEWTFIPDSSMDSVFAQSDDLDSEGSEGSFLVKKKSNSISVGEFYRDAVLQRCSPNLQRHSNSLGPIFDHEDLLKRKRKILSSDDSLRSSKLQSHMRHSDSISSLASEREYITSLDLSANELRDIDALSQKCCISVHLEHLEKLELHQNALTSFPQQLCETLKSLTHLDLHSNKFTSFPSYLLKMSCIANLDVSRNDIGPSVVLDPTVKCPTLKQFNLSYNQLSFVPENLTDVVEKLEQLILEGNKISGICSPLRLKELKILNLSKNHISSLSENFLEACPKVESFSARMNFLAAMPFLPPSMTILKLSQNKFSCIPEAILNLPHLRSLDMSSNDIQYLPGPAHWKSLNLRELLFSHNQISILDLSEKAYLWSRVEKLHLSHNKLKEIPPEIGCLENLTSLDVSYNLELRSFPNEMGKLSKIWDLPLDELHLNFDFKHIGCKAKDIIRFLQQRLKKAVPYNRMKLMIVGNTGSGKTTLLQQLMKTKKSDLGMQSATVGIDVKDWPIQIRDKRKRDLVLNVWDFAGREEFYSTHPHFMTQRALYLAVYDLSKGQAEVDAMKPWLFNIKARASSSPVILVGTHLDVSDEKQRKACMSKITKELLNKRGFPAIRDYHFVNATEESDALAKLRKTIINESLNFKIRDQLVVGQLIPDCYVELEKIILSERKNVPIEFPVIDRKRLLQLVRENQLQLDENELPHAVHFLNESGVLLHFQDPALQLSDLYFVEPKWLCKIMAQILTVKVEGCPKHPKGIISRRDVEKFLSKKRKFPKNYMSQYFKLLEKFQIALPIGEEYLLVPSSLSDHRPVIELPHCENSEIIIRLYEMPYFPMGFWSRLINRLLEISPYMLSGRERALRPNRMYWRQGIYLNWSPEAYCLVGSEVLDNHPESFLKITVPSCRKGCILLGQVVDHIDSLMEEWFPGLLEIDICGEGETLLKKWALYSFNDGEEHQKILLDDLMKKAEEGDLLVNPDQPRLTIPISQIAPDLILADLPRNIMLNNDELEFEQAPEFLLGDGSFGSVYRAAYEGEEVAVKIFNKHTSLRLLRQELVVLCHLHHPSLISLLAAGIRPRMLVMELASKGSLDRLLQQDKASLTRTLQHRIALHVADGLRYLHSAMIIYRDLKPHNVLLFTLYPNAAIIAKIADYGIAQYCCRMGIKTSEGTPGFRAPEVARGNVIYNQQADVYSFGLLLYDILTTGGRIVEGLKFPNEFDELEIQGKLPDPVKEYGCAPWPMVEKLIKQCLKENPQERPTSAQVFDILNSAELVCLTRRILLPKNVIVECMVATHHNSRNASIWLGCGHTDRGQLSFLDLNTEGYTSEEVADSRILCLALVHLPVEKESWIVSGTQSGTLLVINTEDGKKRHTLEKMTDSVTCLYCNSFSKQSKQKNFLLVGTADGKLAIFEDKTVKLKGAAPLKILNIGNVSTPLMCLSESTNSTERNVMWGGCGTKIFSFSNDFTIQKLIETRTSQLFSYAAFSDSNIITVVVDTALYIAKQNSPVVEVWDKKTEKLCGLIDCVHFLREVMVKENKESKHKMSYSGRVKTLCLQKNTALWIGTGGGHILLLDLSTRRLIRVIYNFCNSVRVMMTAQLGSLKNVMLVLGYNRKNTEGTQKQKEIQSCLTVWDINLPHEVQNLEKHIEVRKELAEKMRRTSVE
Description: Full length G2019 human LRRK2 inhibition mass spectrometry assay. The assay is classed as biochemical. The note with it: LRRKtide to phospho-LRRKtide conversion, RapidFire MS, 2 mM ATP. In a few lines: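 Inhibition taken as reduced LRRKtide phosphorylation, quantified by RapidFire-coupled triple-quadrupole MS as product/(product+substrate) peak area. Reaction: 2 mM ATP, 25 μM peptide, ~25 nM full-length G2019 Flag-LRRK2, Hepes pH 7.2 buffer, room temperature for 1 h. 11-point 1-in-4 dilutions from 100 μM; logistic fit gives IC50, reported as pIC50.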
In general, pIC50 refers to −log10 of the IC50, conventionally taken in molar units. `CCOC1CNc2nc(ncc2Cl)Nc2c(nn(C3CCOCC3)c2C)OC1` (single isomer, unassigned) [E286, 14-Chloro-10-ethoxy-4-methyl-5-(oxan-4-yl)-8-oxa-2,5,6,12,16,17-hexaazatricyclo[11.3.1.0^3,7]heptadeca-1(16),3,6,13(17),14-pentaene]: the pIC50 is ≥ 5.00. Turning to `Cc1c2c(nn1C1CCOCC1)OCCC(C1CC1)Nc1nc(ncc1Cl)N2` (single isomer, unassigned) [E292, 14-Chloro-11-cyclopropyl-4-methyl-5-(oxan-4-yl)-8-oxa-2,5,6,12,16,17-hexaazatricyclo[11.3.1.0^3,7]heptadeca-1(16),3,6,13(17),14-pentaene], the pIC50 is ≥ 5.00. The figure for `Cc1c2c(nn1C1CCCOC1)OCC(C)CNc1nc(ncc1Cl)N2` (single isomer, unassigned) [E307, 14-Chloro-4,10-dimethyl-5-(oxan-3-yl)-8-oxa-2,5,6,12,16,17-hexaazatricyclo[11.3.1.0^3,7]heptadeca-1(16),3,6, 13(17),14-pentaene] is ≥ 7.00.

`Cc1c2c(nn1C1CCCOC1)OCCCNc1nc(ncc1Cl)N2` (single isomer, unassigned) [E11, 14-Chloro-4-methyl-5-(oxan-3-yl)-8-oxa-2,5,6,12,16,17-hexaaza tricyclo-[11.3.1.0^3,7]heptadeca-1(16),3,6,13(17),14-pentaene]: the pIC50 is ≥ 7.00. The figure for `COC(C)c1c2c(nn1C1CCOCC1)OCC[C@@H](C)Nc1nc(ncc1Cl)N2` (stereo partly drawn) [E409, (11R)-14-Chloro-4-(1-methoxyethyl)-11-methyl-5-(oxan-4-yl)-8-oxa-2,5,6,12,16,17-hexaazatricyclo[11.3.1.0^3,7]heptadeca-1(17),3,6,13,15-pentaene] is ≥ 5.00; for `Clc1cnc2nc1NCCCOc1nn(C3CCCOC3)cc1N2` (stereo not drawn) [E9, 14-Chloro-5-(oxan-3-yl)-8-oxa-2,5,6,12,16,17-hexaazatricyclo[11.3.1.0^3,7]heptadeca-1(16),3,6,13(17),14-pentaene] it is ≥ 5.00. The result for `Cc1c2c(nn1C1CCC(N3CCC(F)C3)CC1)OCCCNc1nc(ncc1Cl)N2` (single isomer, unassigned) [E155, 14-Chloro-5-[4-(3-fluoropyrrolidin-1-yl)cyclohexyl]-4-methyl-8-oxa-2,5,6,12,16,17-hexaazatricyclo[11.3.1. 0^3,7]heptadeca-1(16),3,6,13(17),14-pentaene] reads ≥ 7.00.

As for `Cc1c2c(nn1C1CCOCC1C)OCCCNc1nc(ncc1Cl)N2` (single isomer, unassigned) [E140, 14-chloro-4-methyl-5-(3-methyloxan-4-yl)-8-oxa-2,5,6,12,16,17-hexaazatricyclo[11.3.1.0^3,7]heptadeca-1(16),3,6,13(17),14-pentaene], the pIC50 was ≥ 7.00. In the case of `Cc1c2c(nn1C1CCOCC1)OCC(C)CNc1nc(ncc1Cl)N2` (single isomer, unassigned) [E137, 14-chloro-4,10-dimethyl-5-(oxan-4-yl)-8-oxa-2,5,6,12,16,17-hexaazatricyclo[11.3.1.0^3,7]heptadeca-1(16),3,6,13(17),14-pentaene], the pIC50 was ≥ 7.00. The figure for `Cc1c2c(nn1C1CC3CCC(C1)O3)OCCC(C)Nc1nc(ncc1Cl)N2` (single isomer, unassigned) [E250, 14-Chloro-4,11-dimethyl-5-{8-oxabicyclo[3.2.1]octan-3-yl}-8-oxa-2,5,6,12,16,17-hexaazatricyclo[11.3.1.0^3,7] heptadeca-1(16),3,6,13(17),14-pentaene] is ≥ 5.00; for `Cc1c2c(nn1C1CCOCC1F)OCCCNc1nc(ncc1Cl)N2` (single isomer, unassigned) [E236, 14-Chloro-5-(3-fluorooxan-4-yl)-4-methyl-8-oxa-2,5,6,12,16,17-hexaazatricyclo[11.3.1.0^3,7]heptadeca-1(16),3,6,13 (17),14-pentaene] it is ≥ 7.00. The figure for `Cc1c2c(nn1C1CCOCC1(F)F)OCCCNc1nc(ncc1Cl)N2` (single isomer, unassigned) [E414] is ≥ 7.00; for `Cc1c2c(nn1C1CC3CCC(C1)O3)OCCC(C)Nc1nc(ncc1Cl)N2` (single isomer, unassigned) [E251, 14-Chloro-4,11-dimethyl-5-{8-oxabicyclo[3.2.1]octan-3-yl}-8-oxa-2,5,6,12,16,17-hexaazatricyclo[11.3.1.0^3,7] heptadeca-1(16),3,6,13(17),14-pentaene] it is ≥ 7.00; for `Cc1c2c(nn1C1CCC(C)CC1)OCCC(C)Nc1nc(ncc1Cl)N2` (single isomer, unassigned) [E260, 14-Chloro-4,11-dimethyl-5-(4-methylcyclohexyl)-8-oxa-2,5,6,12,16,17-hexaazatricyclo[11.3.1.0^3,7] heptadeca-1(16),3,6,13(17),14-pentaene] it is ≥ 7.00.

With `Cc1c2c(nn1C1CCOCC1)OCCNc1nc(ncc1Cl)N2` [E138, 13-Chloro-4-methyl-5-(oxan-4-yl)-8-oxa-2,5,6,11,15,16-hexaaza tricyclo[10.3.1.0^3,7]hexadeca-1(15),3,6,12(16),13-pentaene], the pIC50 was ≥ 5.00. The figure for `COC1CNc2nc(ncc2Cl)Nc2c(nn(C3COC3)c2C)OC1` (single isomer, unassigned) [E271, 14-Chloro-10-methoxy-4-methyl-5-(oxetan-3-yl)-8-oxa-2,5,6,12,16,17-hexaazatricyclo[11.3.1.0^3,7]heptadeca-1(16),3,6,13(17),14-pentaene] is ≥ 5.00; for `Cc1c2c(nn1C1CN(C3CCOCC3)C1)OC[C@@H](F)[C@@H](C)Nc1nc(ncc1Cl)N2` [E388, (10S, 11R)-14-Chloro-10-fluoro-4,11-dimethyl-5-[1-(oxan-4-yl)azetidin-3-yl]-8-oxa-2,5,6,12,16,17-hexaazatricyclo [11.3.1.0^3,7]heptadeca-1(16),3,6,13(17),14-pentaene] it is ≥ 7.00.

As for `COC1CNc2nc(ncc2Cl)Nc2c(nn(C3CC(C)OC(C)C3)c2C)OC1` (single isomer, unassigned) [E199, 14-Chloro-5-(2,6-dimethyloxan-4-yl)-10-methoxy-4-methyl-8-oxa-2,5,6,12,16,17-hexaazatricyclo[11.3.1.0^3,7] heptadeca-1(16),3,6,13(17),14-pentaene], the negative logarithm of the IC50 (pIC50) is ≥ 5.00. Turning to `Cc1c2c(nn1C1CCOCC1)OCCC(C(F)(F)F)Nc1nc(ncc1Cl)N2` (single isomer, unassigned) [E193, 14-Chloro-4-methyl-5-(oxan-4-yl)-11-(trifluoromethyl)-8-oxa-2,5,6,12,16,17-hexaazatricyclo[11.3.1.0^3,7] heptadeca-1(16),3,6,13(17),14-pentaene], the pIC50 is ≥ 5.00. The figure for `COC1CNc2nc(ncc2Cl)Nc2c(nn(C3CCC(C(F)(F)F)CC3)c2C)OC1` (single isomer, unassigned) [E279, 14-Chloro-10-methoxy-4-methyl-5-[4-(trifluoromethyl)cyclohexyl]-8-oxa-2,5,6,12,16,17-hexaazatricyclo [11.3. 1.0^3,7]heptadeca-1(16),3,6,13(17),14-pentaene] is ≥ 5.00; for `Cc1c2c(nn1C1CCOCC1F)OCCC(C)Nc1nc(ncc1Cl)N2` (single isomer, unassigned) [E26, 14-chloro-5-(3-fluorooxan-4-yl)-4,11-dimethyl-8-oxa-2,5,6,12,16,17-hexaazatricyclo [11.3.1.0^3,7]heptadeca-1(17),3,6,13,15-pentaene] it is ≥ 5.00.
